Assay results: PubChem BioAssay (NCI)
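Results reflect a 48-hour exposure of cells in 96-well plates to compound at five concentrations. Abbreviation: GI50, concentration required for 50% inhibition of growth. TGI: concentration producing complete growth inhibition.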

How the values were obtained:
Test in all cases: inhibition of tumour cell growth, NCI panel, 48 h
A498 renal = tested on: A498 renal
A549 NSCLC = tested on: A549 NSCLC
HCT-116 colon = tested on: HCT-116 colon
OVCAR-8 ovarian = tested on: OVCAR-8 ovarian
RXF 393 renal = tested on: RXF 393 renal
SNB-75 CNS = tested on: SNB-75 CNS
U251 CNS = tested on: U251 CNS
UACC-257 melanoma = tested on: UACC-257 melanoma
NCI/ADR-RES ovarian = tested on: NCI/ADR-RES ovarian
T-47D breast = tested on: T-47D breast

SMILES	TGI (A498 renal) [µM]	TGI (A549 NSCLC) [µM]	TGI (HCT-116 colon) [µM]	TGI (OVCAR-8 ovarian) [µM]	TGI (RXF 393 renal) [µM]	TGI (SNB-75 CNS) [µM]	TGI (U251 CNS) [µM]	TGI (UACC-257 melanoma) [µM]	GI50 (A549 NSCLC) [µM]	GI50 (HCT-116 colon) [µM]	GI50 (NCI/ADR-RES ovarian) [µM]	TGI (NCI/ADR-RES ovarian) [µM]	GI50 (OVCAR-8 ovarian) [µM]	GI50 (RXF 393 renal) [µM]	GI50 (T-47D breast) [µM]	TGI (T-47D breast) [µM]	GI50 (U251 CNS) [µM]	GI50 (UACC-257 melanoma) [µM]	GI50 (A498 renal) [µM]	GI50 (SNB-75 CNS) [µM]
COc1c(NC(C)=O)cc(C)cc1NC(C)=O	> 100	> 100	> 100	> 100	> 100	> 100	> 100	> 100	–	–	–	–	–	–	–	–	–	–	–	–
Oc1ccc(O)c(-c2cc(-c3ccccc3)nn2-c2ccccc2)c1	–	80.9	21.8	74	> 100	–	19.9	52.1	17.3	9.71	11.5	29.7	17.2	31.3	19.6	98.4	5.7	18	–	–
C=C(C)C1CC2(C)C(C)CC(OC(=O)/C(C)=C\C)CC2C(OC(=O)/C(C)=C\C)C1O (stereo not drawn)	> 100	> 100	> 100	> 100	–	> 100	> 100	> 100	–	–	–	> 100	–	–	–	> 100	–	–	–	–
COC(=O)C1=C(C(=O)OC)C23CC1C1C(C(=O)OC)=C(C(=O)OC)C12C1C=CC3C2C(=O)OC(=O)C21 (stereo not drawn)	–	> 100	> 100	> 100	> 100	47.7	> 100	> 100	–	–	–	–	–	–	–	–	–	–	–	–
NNC(=S)N/N=C(/C(=O)Nc1cc(Cl)ccc1Cl)C1C(=O)Nc2ccccc2S1=O (stereo not drawn)	> 100	> 100	> 100	> 100	> 100	> 100	> 100	> 100	–	–	–	–	–	–	–	–	–	–	–	–
COc1ccc(C(=O)C(C(=O)C(=O)Nc2ccc(Cl)c(Cl)c2)c2ccc(OC)cc2)cc1 (stereo not drawn)	> 100	> 100	> 100	> 100	> 100	> 100	> 100	> 100	–	–	–	–	–	–	–	–	–	–	–	–
Cc1cc(C2=NNC(=O)Cc3cc4c(cc32)OCCO4)cc(C)c1N	99.4	> 100	> 100	> 100	–	4.32	> 100	–	3.2	2.35	0.882	25.8	4.08	–	4.41	> 100	3.22	–	3.31	1.25
CC(C)(C)CC(C)(C)c1cc2c(O)c(c1)Cc1cc(C(C)(C)CC(C)(C)C)cc(c1O)Cc1cc(C(C)(C)CC(C)(C)C)cc(c1O)Cc1cc(C(C)(C)CC(C)(C)C)cc(c1O)Cc1cc(C(C)(C)CC(C)(C)C)cc(c1O)Cc1cc(C(C)(C)CC(C)(C)C)cc(c1O)C2	–	> 100	> 100	> 100	> 100	> 100	> 100	> 100	–	–	–	–	–	–	–	–	–	–	–	–
CCOC(=O)C1=C(O)CSC1=Nc1ccccc1	–	> 100	> 100	> 100	–	> 100	–	> 100	–	–	–	–	–	–	–	–	–	–	–	–
CN[C@@H](C)[C@@H](N)c1ccccc1	> 100	> 100	> 100	> 100	> 100	> 100	> 100	> 100	–	–	–	–	–	–	–	–	–	–	–	–
Cc1cccc(C(=O)/C=C/SC(=NC#N)SCc2ccccc2)c1	–	67.7	> 100	> 100	57.6	–	99.4	35.9	23.7	27.2	24.4	64.5	35.6	22.7	21.6	> 100	22.5	18.1	–	–
CC(=O)c1cccc(NC(=O)C(=O)C(C2OC(=O)c3ccccc32)[N+](=O)[O-])c1 (stereo not drawn)	> 100	> 100	> 100	–	> 100	> 100	> 100	> 100	–	–	–	–	–	–	–	–	–	–	–	–
O=C1C2=Nc3ccccc3C(O)N2c2ccccc21 (stereo not drawn)	90.9	> 100	> 100	> 100	–	90.4	> 100	16.5	–	–	–	> 100	–	–	–	> 100	–	–	–	–
CCOC(=O)c1cc2c(nc1N)-c1ncccc1CC2	> 100	> 100	> 100	> 100	> 100	> 100	> 100	> 100	–	–	–	–	–	–	–	–	–	–	–	–
COc1ccc(N=Nc2c(-c3ccccc3)nn(C(=O)CC(=O)Nc3cccc(Cl)c3)c2-c2ccccc2)cc1	> 100	> 100	> 100	> 100	–	> 100	> 100	> 100	–	–	–	–	–	–	–	–	–	–	–	–
COc1cccc2c1-c1c(c3ccc([N+](=O)[O-])cc3c(=O)n1CCCCl)C2=O	> 50	> 50	> 50	> 50	–	32.3	–	> 50	> 50	2.48	> 50	> 50	> 50	–	> 50	> 50	–	> 50	17.4	11.6
Cc1c(C(=O)C/C(=N/NC(=O)C[n+]2ccccc2)C(=O)Nc2ccccc2)[n+](=O)c2ccccc2n1O	> 100	> 100	> 100	> 100	> 100	> 100	> 100	> 100	–	–	–	–	–	–	–	–	–	–	–	–
C=CC[P+](c1ccccc1)(c1ccccc1)c1ccccc1	63	> 100	> 100	> 100	> 100	57.9	> 100	6.66	4.54	3.48	> 100	> 100	3.25	27.6	–	–	3.44	0.877	7.09	3.58
CC(=O)C1=C(C)Cn2c(=O)c3ccccc3c(=O)n2C1	> 100	> 100	> 100	> 100	> 100	> 100	> 100	> 100	–	–	–	–	–	–	–	–	–	–	–	–
CC(=O)O[C@H](C[C@H](C(C)C)N(C)C(=O)[C@@H](NC(=O)[C@H]1CCCCN1C)C(C)C)c1nc(C(=O)N[C@@H](Cc2ccccc2)C[C@H](C)C(=O)O)c(C(C)C)s1	< 0.00333	> 33.3	0.773	> 33.3	> 33.3	29.1	> 33.3	> 33.3	0.00495	< 0.00333	0.0691	–	< 0.00333	< 0.00333	–	–	< 0.00333	> 33.3	< 0.00333	< 0.00333

SMILES	TGI (A498 renal) [µM]	TGI (A549 NSCLC) [µM]	TGI (HCT-116 colon) [µM]	TGI (OVCAR-8 ovarian) [µM]	TGI (RXF 393 renal) [µM]	TGI (SNB-75 CNS) [µM]	TGI (U251 CNS) [µM]	TGI (UACC-257 melanoma) [µM]	GI50 (A549 NSCLC) [µM]	GI50 (HCT-116 colon) [µM]	GI50 (NCI/ADR-RES ovarian) [µM]	TGI (NCI/ADR-RES ovarian) [µM]	GI50 (OVCAR-8 ovarian) [µM]	GI50 (RXF 393 renal) [µM]	GI50 (T-47D breast) [µM]	TGI (T-47D breast) [µM]	GI50 (U251 CNS) [µM]	GI50 (UACC-257 melanoma) [µM]	GI50 (A498 renal) [µM]	GI50 (SNB-75 CNS) [µM]
COC(=O)c1ccc(NC(=O)Nc2ccc3oc(=O)c4ccccc4c3c2)cc1	–	> 100	> 100	> 100	–	96.2	> 100	> 100	> 100	32.4	41.7	> 100	36.6	–	> 100	> 100	30.9	60.7	–	32
CCOc1cc2c(cc1O)/C(=N\O)C[C@@H]1[C@@H]2CC[C@]2(C)[C@@H](O)CC[C@@H]12	> 100	> 100	–	> 100	> 100	0.0166	> 100	–	0.0854	–	–	> 100	–	–	–	–	0.0324	–	0.604	0.00232
COc1ccc(C2=NN(C(=O)c3cc(OC)c(OC)c(OC)c3)C(c3ccc(Cl)cc3)C2)cc1OC (stereo not drawn)	8.3	> 100	19.7	> 58.6	–	15.2	42.2	77.8	4.03	2.04	1.05	–	4.63	–	3.59	> 100	3.67	8.6	0.608	0.746
Cc1cc(=O)[nH]o1	–	> 100	> 100	> 100	> 100	> 100	> 100	> 100	–	–	–	> 100	–	–	–	–	–	–	–	–
CCCCCCCCOC(CO)CO	> 100	> 100	> 100	> 100	–	–	> 100	> 100	–	–	–	–	–	–	–	–	–	–	–	–
C[C@]12CCc3nonc3C1CC[C@@H]1C2CC[C@]2(C)NC(=O)CCC12 (stereo partly drawn)	> 100	> 100	> 100	> 100	> 100	> 100	> 100	> 100	–	–	–	–	–	–	–	–	–	–	–	–
C/C(=N\N=C(\[Se])N1CCN(c2ccccn2)CC1)c1ccccn1	18.1	21.7	6.27	20.6	1.83	17.5	16.7	12.8	0.0476	0.00589	–	18.6	0.000541	–	–	–	–	0.0047	–	–
O=C(c1cc2ccccc2o1)N(Cc1ccccc1)c1ccccc1	89.1	> 100	31.9	66.2	43	> 100	–	41.4	–	–	–	–	–	–	–	–	–	–	–	–
O=c1cccccc1NCCCCCCNc1cccccc1=O	> 100	> 100	> 100	> 100	–	> 100	> 100	> 100	–	–	–	–	–	–	–	–	–	–	–	–
CC/C(=C(/CC)c1ccc([O-])cc1)c1ccc([O-])cc1.CC/C(=C(\CC)c1ccc([O-])cc1)c1ccc([O-])cc1.O=C([CH-]C(=O)c1ccccc1)c1ccccc1.O=C([CH-]C(=O)c1ccccc1)c1ccccc1.O=C([CH-]C(=O)c1ccccc1)c1ccccc1.O=C([CH-]C(=O)c1ccccc1)c1ccccc1.[Ti+4].[Ti+4]	–	47.9	> 100	50.1	42.3	–	82	> 100	18.9	28.8	–	–	20.7	14.7	–	–	24.9	28	–	–
CN(C)c1ccc(/C=C2\N=C(c3ccc([N+](=O)[O-])cc3)OC2=O)cc1	> 100	> 100	> 100	> 100	> 100	> 100	> 100	> 100	–	–	–	–	–	–	–	> 100	–	–	–	–
C/C1=C/C2=CC(C)C[C@@H]2C(=O)[C@]2(C)C(=O)CC(C)(C)[C@H]2CC1=O (stereo partly drawn)	> 50	> 50	> 50	> 50	–	> 50	> 50	> 50	–	–	–	> 50	–	–	–	> 50	–	–	–	–
COc1ccc2nc3cc(Cl)ccc3c(N3CCN(c4ccnc(N5CCOCC5)n4)CC3)c2c1	> 100	> 100	> 100	> 100	16.1	65.3	> 100	> 100	> 100	6.29	50.8	> 100	43.5	2.68	–	–	> 100	> 100	27.8	10.6
O=C1c2ccccc2C(=O)c2c(NCCNCCO)ccc(O)c21	19.4	11.2	12.9	13.5	7.92	15.7	14.7	13.5	–	–	–	–	–	–	–	–	–	–	–	–
O=C1OCCC1C(O)C1c2ccccc2-c2ccccc21 (stereo not drawn)	> 100	> 100	> 100	> 100	–	> 100	> 100	> 100	–	–	–	–	–	–	–	–	–	–	–	–
CN(C)CCNC(=O)Cn1cc([N+](=O)[O-])c(=O)c2ccccc21	> 100	> 100	> 100	> 100	–	> 100	> 100	> 100	–	–	–	> 100	–	–	–	> 100	–	–	–	–
CC(=O)O[C@]1(C)OC(=O)[C@@H](C)N1[N+](=O)[O-]	> 100	> 100	> 100	> 100	> 100	> 100	> 100	> 100	–	–	–	–	–	–	–	–	–	–	–	–
CC1(C)CCc2cc3c(cc2O1)OCC1c2cc4c(cc2OC31)OCO4 (stereo not drawn)	> 100	> 100	> 100	> 100	> 100	> 100	> 100	> 100	–	–	–	–	–	–	–	–	–	–	–	–
O=c1cc(N2CCNCC2)oc2c(-c3ccccc3)cccc12	74.8	76.2	–	> 100	–	75	> 100	29.1	23.3	–	> 100	> 100	74.2	–	26.6	> 100	35.4	13.6	25	15.3
